Laboratory results published in patent publication US20250152585A1, “PHARMACEUTICAL COMPOUND” (Duke Street Bio Limited, priority 2022, published 2025).
Where two headings read alike, the source gives them in different places.

Columns and labels:
[1] = biological target: T1, N-terminally FLAG-tagged PARP2 (amino acids 1-583) (Homo sapiens, UniProt Q9UGN5); assay: PARP2 probe displacement HTRF assay; type: binding; details: binned Kd, PARP2 probe displacement HTRF
T1 construct: N-terminally FLAG-tagged PARP2 (amino acids 1-583)
T1 sequence (Q9UGN5 whole entry, the tested form may be a part): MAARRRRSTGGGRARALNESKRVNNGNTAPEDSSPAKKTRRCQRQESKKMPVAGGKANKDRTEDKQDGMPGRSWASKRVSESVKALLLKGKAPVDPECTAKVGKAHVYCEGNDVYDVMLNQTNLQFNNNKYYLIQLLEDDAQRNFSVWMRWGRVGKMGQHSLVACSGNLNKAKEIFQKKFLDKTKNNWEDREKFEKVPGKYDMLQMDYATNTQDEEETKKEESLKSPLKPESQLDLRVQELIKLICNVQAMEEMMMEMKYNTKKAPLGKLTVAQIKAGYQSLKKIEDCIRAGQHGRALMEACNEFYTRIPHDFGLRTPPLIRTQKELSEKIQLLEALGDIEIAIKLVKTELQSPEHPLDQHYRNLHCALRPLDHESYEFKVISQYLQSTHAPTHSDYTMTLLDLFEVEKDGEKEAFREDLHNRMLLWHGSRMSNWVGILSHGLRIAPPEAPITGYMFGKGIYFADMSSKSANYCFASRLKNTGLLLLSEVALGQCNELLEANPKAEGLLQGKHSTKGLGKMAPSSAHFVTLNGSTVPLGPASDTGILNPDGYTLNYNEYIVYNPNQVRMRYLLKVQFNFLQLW
Protocol: Data analysis was performed identical as for PARP1.

[2] = biological target: T2, full length N-terminally FLAG-tagged PARP1 (Homo sapiens, UniProt P09874); assay: PARP1 probe displacement HTRF assay; details: for Selectivity: PARP1 over PARP2, ratio Kd (PARP2)/Kd (PARP1), probe displacement HTRF; for Kd: binned Kd, PARP1 probe displacement HTRF
T2 sequence (P09874 whole entry): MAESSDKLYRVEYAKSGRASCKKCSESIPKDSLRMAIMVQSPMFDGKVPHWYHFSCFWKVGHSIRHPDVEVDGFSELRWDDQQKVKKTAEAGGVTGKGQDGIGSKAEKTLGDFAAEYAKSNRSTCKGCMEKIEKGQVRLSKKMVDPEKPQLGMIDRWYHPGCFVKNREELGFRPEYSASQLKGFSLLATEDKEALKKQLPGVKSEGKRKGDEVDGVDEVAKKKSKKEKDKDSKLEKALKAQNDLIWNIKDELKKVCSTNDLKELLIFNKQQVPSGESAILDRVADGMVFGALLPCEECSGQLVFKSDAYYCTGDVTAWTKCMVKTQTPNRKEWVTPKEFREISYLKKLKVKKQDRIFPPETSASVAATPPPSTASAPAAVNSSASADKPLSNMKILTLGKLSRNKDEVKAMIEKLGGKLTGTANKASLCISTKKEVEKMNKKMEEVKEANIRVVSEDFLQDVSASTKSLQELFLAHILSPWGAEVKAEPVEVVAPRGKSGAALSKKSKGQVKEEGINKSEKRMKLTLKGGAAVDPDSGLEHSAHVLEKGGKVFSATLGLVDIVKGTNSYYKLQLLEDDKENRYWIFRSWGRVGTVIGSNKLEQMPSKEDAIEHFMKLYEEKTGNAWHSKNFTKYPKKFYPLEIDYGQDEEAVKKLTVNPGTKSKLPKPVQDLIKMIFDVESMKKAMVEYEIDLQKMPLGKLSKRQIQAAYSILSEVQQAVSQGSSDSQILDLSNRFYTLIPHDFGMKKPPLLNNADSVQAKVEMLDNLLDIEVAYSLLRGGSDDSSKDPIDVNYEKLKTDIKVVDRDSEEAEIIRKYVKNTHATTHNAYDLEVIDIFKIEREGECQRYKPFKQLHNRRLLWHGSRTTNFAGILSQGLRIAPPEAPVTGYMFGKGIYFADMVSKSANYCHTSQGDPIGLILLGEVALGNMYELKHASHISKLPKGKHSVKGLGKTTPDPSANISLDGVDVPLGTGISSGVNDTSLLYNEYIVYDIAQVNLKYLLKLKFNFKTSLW

[3] = biological target: T2, full length N-terminally FLAG-tagged PARP1; assay: PARP1 biochemical DELFIA assay (auto-PARylation); design: recombinant full length human N-terminally FLAG-tagged PARP1; details: binned IC50, PARP1 biochemical DELFIA assay

Kd [1] [nM]	Kd ([2]; read-out: PARP1 HTRF) [nM]	IC50 [3] [nM]	Kd ([2]; PARP1 HTRF) [nM]	Compound	Selectivity [2]
> 10000	10 to 100	10 to 100		CNC(=O)c1ccc(N2CCC(N3CCC(c4ncc(C)c(=O)[nH]4)C3)CC2)cn1 (single isomer, unassigned) [Compound 35b]	+++ (+++ indicate a value of at least 100)
1000 to 10000	1000 to 10000	1000 to 10000		CCc1cnc(C2CCN(C3CCC(F)(F)CC3)C2)[nH]c1=O (single isomer, unassigned) [Compound 38a]	− (− indicates a value of less than 10)
> 10000	1000 to 10000	1000 to 10000		CCc1cnc(C2CCN(C3CCC(F)(F)CC3)C2)[nH]c1=O (single isomer, unassigned) [Compound 38b]	− (− indicates a value of less than 10)
100 to 1000	10 to 100	100 to 1000		O=c1[nH]c(C2CCN(C3CCN(c4ccc(Cl)cc4)CC3)C2)nc2ccccc12 (single isomer, unassigned) [Compound 43a]	− (− indicates a value of less than 10)
1000 to 10000	10 to 100	10 to 100		CNC(=O)c1ccc(N2CCC(N3CCCC(c4nc5c(Cl)cccc5c(=O)[nH]4)C3)CC2)cn1 (single isomer, unassigned) [Compound 44b]	+ (+ indicates a value of 10 to less than 50)
> 10000	100 to 1000	100 to 1000		CNC(=O)c1ccc(N2CC(N3CCCC(Cc4nc5ccccc5c(=O)[nH]4)C3)C2)cn1 (single isomer, unassigned) [Compound 51a]	+ (+ indicates a value of 10 to less than 50)
1000 to 10000	1000 to 10000	1000 to 10000		CNC(=O)c1ccc(N2CC(N3CCCC(Cc4nc5ccccc5c(=O)[nH]4)C3)C2)cn1 (single isomer, unassigned) [Compound 51b]	− (− indicates a value of less than 10)
1000 to 10000		< 10	< 10	CCc1ccc(C2CCCN(C3CCN(c4ccc(C(=O)NC)nc4)CC3)C2)[nH]c1=O (single isomer, unassigned) [Compound 53a, 5-{4-[3-(5-ethyl-6-oxo-1H-pyridin-2-yl)piperidin-1-yl]piperidin-1-yl}-N-methylpyridine-2-carboxamide]	+++ (+++ indicate a value of at least 100)
1000 to 10000	< 10	< 10		N#Cc1ccc(N2CCC(N3CCC(c4nc5ccccc5c(=O)[nH]4)C3)CC2)nc1 (single isomer, unassigned) [Compound 55a]	+++ (+++ indicate a value of at least 100)
> 10000	100 to 1000	1000 to 10000		CNC(=O)c1ccc(N2CCC(N3CCC(c4ncc(C(F)(F)F)c(=O)[nH]4)C3)CC2)cn1 (single isomer, unassigned) [Compound 56b]	− (− indicates a value of less than 10)

Continued, compound first:

Compound	Kd [1] [nM]	Kd ([2]; read-out: PARP1 HTRF) [nM]	IC50 [3] [nM]	Kd ([2]; PARP1 HTRF) [nM]	Selectivity [2]
N#Cc1ccc(N2CCC(N3CCC(c4nc5ccccc5c(=O)[nH]4)C3)CC2)cc1 (single isomer, unassigned) [Compound 34b]	1000 to 10000	< 10	< 10		+++ (+++ indicate a value of at least 100)
O=c1[nH]c(C2CCN(C3CCN(c4ccc(Cl)cc4)CC3)C2)nc2ccccc12 (single isomer, unassigned) [Compound 43b]	100 to 1000	< 10	< 10		+ (+ indicates a value of 10 to less than 50)
CNC(=O)c1ccc(N2CCC(N3CCCC(c4nc5c(Cl)cccc5c(=O)[nH]4)C3)CC2)cn1 (single isomer, unassigned) [Compound 44a]	> 10000	< 10	< 10		+++ (+++ indicate a value of at least 100)
CNC(=O)c1ccc(N2CCC(N3CCC(c4nc5ccccc5c(=O)[nH]4)C3)CC2)nc1 (single isomer, unassigned) [Compound 46a]	1000 to 10000	10 to 100	< 10		+++ (+++ indicate a value of at least 100)
CNC(=O)c1ccc(N2CCC(N3CCC(c4nc5ccccc5c(=O)[nH]4)C3)CC2)nc1 (single isomer, unassigned) [Compound 46b]	100 to 1000	100 to 1000	100 to 1000		− (− indicates a value of less than 10)
CNC(=O)c1ccc(N2CCC(CN3CCC(c4nc5ccccc5c(=O)[nH]4)CC3)C2)cn1 (single isomer, unassigned) [Compound 50a]	1000 to 10000	10 to 100	10 to 100		+ (+ indicates a value of 10 to less than 50)
CNC(=O)c1ccc(N2CCC(CN3CCC(c4nc5ccccc5c(=O)[nH]4)CC3)C2)cn1 (single isomer, unassigned) [Compound 50b]	> 10000	10 to 100	10 to 100		+++ (+++ indicate a value of at least 100)
CNC(=O)c1ccc(N2CCC(N3CCC(c4nc5c(Cl)cccc5c(=O)[nH]4)C3)CC2)cn1 (single isomer, unassigned) [Compound 52a, 5-(4-(3-(8-chloro-4-oxo-3,4-dihydroquinazolin-2-yl)pyrrolidin-1-yl)piperidin-1-yl)-N-methylpicolinamide]	100 to 1000		10 to 100	10 to 100	− (− indicates a value of less than 10)
CNC(=O)c1ccc(N2CCC(N3CCC(c4nc5c(Cl)cccc5c(=O)[nH]4)C3)CC2)cn1 (single isomer, unassigned) [Compound 52b, 5-(4-(3-(8-chloro-4-oxo-3,4-dihydroquinazolin-2-yl)pyrrolidin-1-yl)piperidin-1-yl)-N-methylpicolinamide]	100 to 1000		< 10	< 10	+++ (+++ indicate a value of at least 100)
CCc1ccc(C2CCCN(C3CCN(c4ccc(C(=O)NC)nc4)CC3)C2)[nH]c1=O (single isomer, unassigned) [Compound 53b, 5-{4-[3-(5-ethyl-6-oxo-1H-pyridin-2-yl)piperidin-1-yl]piperidin-1-yl}-N-methylpyridine-2-carboxamide]	> 10000		100 to 1000	100 to 1000	+ (+ indicates a value of 10 to less than 50)
N#Cc1ccc(N2CCC(N3CCC(c4nc5ccccc5c(=O)[nH]4)C3)CC2)nc1 (single isomer, unassigned) [Compound 55b]	100 to 1000	10 to 100	10 to 100		− (− indicates a value of less than 10)
CNC(=O)c1ccc(N2CCC(N3CCC(c4ncc(C(F)(F)F)c(=O)[nH]4)C3)CC2)cn1 (single isomer, unassigned) [Compound 56a]	> 10000	10 to 100	100 to 1000		++ (++ indicates a value of 50 to less than 100)
CNC(=O)c1ccc(N2CCC(N3CCCC(Cc4nc5ccccc5c(=O)[nH]4)C3)CC2)cn1 (single isomer, unassigned) [Compound 57a]	> 10000	10 to 100	< 10		+++ (+++ indicate a value of at least 100)
CNC(=O)c1ccc(N2CCC(N3CCCC(Cc4nc5ccccc5c(=O)[nH]4)C3)CC2)cn1 (single isomer, unassigned) [Compound 57b]	> 10000	100 to 1000	100 to 1000		+ (+ indicates a value of 10 to less than 50)
